Assay results published in ChEMBL document CHEMBL5442219.

Legend:
Details in all cases: Compound concentration 10 µM
[1] = target: T1, Muscarinic acetylcholine receptor M2 (Homo sapiens) (UniProt P08172)
T1 sequence (whole entry): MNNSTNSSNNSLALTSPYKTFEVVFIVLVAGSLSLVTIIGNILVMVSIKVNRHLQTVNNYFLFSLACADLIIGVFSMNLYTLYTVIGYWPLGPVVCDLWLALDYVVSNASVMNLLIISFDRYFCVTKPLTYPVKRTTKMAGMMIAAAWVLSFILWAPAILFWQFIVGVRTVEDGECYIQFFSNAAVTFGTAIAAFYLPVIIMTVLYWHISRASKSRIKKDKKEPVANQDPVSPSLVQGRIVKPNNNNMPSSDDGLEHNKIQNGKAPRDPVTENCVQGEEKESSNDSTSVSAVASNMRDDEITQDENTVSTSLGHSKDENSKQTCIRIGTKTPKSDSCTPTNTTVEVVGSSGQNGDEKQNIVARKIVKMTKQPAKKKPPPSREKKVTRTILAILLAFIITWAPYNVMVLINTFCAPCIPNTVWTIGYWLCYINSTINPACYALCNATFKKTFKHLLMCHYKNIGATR
Description: PDSP Primary Binding target: CHRM2 - Compounds are tested at 10 uM concentration, plate are incubated at room temperature in the dark for 90 minutes. Reaction are stopped by vacuum filtration onto 0.3% polyethyleneimine soaked filter mats using Filtermate harvester. Scintilation cocktail is then melted onto microwave-dried filters on a hot plate and the radio activity is counted in Microbia counter.

[2] = target: 5-hydroxytryptamine receptor 2B (Homo sapiens) (UniProt P41595)
5-hydroxytryptamine receptor 2B (Homo sapiens), sequence (P41595 whole entry): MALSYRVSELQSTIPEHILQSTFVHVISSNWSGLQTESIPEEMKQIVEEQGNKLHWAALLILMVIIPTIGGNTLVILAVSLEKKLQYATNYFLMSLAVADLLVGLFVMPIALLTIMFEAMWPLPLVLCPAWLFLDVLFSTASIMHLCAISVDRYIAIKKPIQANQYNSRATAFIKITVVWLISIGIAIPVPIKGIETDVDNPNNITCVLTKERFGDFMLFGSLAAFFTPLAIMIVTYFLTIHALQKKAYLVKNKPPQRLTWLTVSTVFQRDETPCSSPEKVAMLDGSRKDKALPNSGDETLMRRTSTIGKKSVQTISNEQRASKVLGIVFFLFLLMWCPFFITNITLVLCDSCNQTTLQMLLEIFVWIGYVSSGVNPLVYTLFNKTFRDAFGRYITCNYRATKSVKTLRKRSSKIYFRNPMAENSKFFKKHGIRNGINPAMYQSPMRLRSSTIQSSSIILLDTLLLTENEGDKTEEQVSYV
Description: PDSP Primary Binding target: HTR2B - Compounds are tested at 10 uM concentration, plate are incubated at room temperature in the dark for 90 minutes. Reaction are stopped by vacuum filtration onto 0.3% polyethyleneimine soaked filter mats using Filtermate harvester. Scintilation cocktail is then melted onto microwave-dried filters on a hot plate and the radio activity is counted in Microbia counter.

[3] = target: Muscarinic acetylcholine receptor M3 (Homo sapiens) (UniProt P20309)
Muscarinic acetylcholine receptor M3 (Homo sapiens), sequence (P20309 whole entry, looked up): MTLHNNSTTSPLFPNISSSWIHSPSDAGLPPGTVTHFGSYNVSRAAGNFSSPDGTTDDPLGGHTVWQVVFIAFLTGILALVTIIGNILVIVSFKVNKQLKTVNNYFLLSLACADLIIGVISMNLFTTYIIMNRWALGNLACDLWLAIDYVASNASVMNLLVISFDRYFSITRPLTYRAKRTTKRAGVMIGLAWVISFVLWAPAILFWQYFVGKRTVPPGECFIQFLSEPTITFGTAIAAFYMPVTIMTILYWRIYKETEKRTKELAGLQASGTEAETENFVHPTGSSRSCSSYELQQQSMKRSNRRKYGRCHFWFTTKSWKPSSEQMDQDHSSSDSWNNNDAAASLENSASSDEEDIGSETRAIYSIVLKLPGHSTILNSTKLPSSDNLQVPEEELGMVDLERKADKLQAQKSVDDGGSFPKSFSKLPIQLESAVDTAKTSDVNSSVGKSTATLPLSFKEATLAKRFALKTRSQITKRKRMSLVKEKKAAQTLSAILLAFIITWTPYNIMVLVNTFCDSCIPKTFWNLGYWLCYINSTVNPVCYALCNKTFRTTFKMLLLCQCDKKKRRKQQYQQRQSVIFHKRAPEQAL
Description: PDSP Primary Binding target: CHRM3 - Compounds are tested at 10 uM concentration, plate are incubated at room temperature in the dark for 90 minutes. Reaction are stopped by vacuum filtration onto 0.3% polyethyleneimine soaked filter mats using Filtermate harvester. Scintilation cocktail is then melted onto microwave-dried filters on a hot plate and the radio activity is counted in Microbia counter.

[4] = target: Beta-3 adrenergic receptor (Homo sapiens) (UniProt P13945)
Beta-3 adrenergic receptor (Homo sapiens), sequence (P13945 whole entry, looked up): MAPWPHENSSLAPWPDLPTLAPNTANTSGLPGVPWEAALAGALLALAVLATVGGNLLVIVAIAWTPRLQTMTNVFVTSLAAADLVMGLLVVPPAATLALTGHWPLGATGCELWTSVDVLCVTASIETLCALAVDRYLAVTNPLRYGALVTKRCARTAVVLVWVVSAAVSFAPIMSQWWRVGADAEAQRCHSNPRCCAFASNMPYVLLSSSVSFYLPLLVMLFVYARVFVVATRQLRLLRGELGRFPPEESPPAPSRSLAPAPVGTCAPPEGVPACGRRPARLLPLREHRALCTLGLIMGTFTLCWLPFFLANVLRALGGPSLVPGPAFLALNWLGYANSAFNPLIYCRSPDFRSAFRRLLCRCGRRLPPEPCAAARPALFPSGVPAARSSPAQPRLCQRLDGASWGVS
Description: PDSP Primary Binding target: ADRB3 - Compounds are tested at 10 uM concentration, plate are incubated at room temperature in the dark for 90 minutes. Reaction are stopped by vacuum filtration onto 0.3% polyethyleneimine soaked filter mats using Filtermate harvester. Scintilation cocktail is then melted onto microwave-dried filters on a hot plate and the radio activity is counted in Microbia counter.

[5] = target: Histamine H2 receptor (Homo sapiens) (UniProt P25021)
Histamine H2 receptor (Homo sapiens), sequence (P25021 whole entry): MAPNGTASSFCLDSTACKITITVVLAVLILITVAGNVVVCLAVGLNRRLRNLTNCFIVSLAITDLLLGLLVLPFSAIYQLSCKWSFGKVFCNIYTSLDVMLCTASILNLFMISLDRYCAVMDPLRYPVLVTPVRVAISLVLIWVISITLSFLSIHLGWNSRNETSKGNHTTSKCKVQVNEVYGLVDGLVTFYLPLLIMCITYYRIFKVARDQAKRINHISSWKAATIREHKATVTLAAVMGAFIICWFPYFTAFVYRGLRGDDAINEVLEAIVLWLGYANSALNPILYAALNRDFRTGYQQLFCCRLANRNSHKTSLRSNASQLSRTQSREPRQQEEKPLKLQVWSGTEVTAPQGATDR
Description: PDSP Primary Binding target: HRH2 - Compounds are tested at 10 uM concentration, plate are incubated at room temperature in the dark for 90 minutes. Reaction are stopped by vacuum filtration onto 0.3% polyethyleneimine soaked filter mats using Filtermate harvester. Scintilation cocktail is then melted onto microwave-dried filters on a hot plate and the radio activity is counted in Microbia counter.

[6] = target: Sodium-dependent dopamine transporter (Homo sapiens) (UniProt Q01959)
Sodium-dependent dopamine transporter (Homo sapiens), sequence (Q01959 whole entry): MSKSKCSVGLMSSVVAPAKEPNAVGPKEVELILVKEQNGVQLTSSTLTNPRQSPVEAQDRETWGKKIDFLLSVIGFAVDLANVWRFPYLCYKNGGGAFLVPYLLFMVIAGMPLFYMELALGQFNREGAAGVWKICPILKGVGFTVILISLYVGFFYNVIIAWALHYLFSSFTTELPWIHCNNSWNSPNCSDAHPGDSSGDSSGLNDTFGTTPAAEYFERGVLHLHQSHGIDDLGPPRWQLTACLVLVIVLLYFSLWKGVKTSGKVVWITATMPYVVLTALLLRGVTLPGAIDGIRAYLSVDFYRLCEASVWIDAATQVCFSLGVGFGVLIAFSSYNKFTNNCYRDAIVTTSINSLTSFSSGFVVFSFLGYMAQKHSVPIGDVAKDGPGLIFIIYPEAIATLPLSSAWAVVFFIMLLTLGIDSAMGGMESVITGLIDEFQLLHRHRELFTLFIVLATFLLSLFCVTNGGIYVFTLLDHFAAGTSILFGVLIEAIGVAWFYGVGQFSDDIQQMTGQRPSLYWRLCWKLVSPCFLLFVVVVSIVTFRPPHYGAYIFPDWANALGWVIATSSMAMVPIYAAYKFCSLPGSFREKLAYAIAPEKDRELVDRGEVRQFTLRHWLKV
Description: PDSP Primary Binding target: SLC6A3 - Compounds are tested at 10 uM concentration, plate are incubated at room temperature in the dark for 90 minutes. Reaction are stopped by vacuum filtration onto 0.3% polyethyleneimine soaked filter mats using Filtermate harvester. Scintilation cocktail is then melted onto microwave-dried filters on a hot plate and the radio activity is counted in Microbia counter.

[7] = target: T2, Alpha-1D adrenergic receptor (Homo sapiens) (UniProt P25100)
T2 sequence (whole entry): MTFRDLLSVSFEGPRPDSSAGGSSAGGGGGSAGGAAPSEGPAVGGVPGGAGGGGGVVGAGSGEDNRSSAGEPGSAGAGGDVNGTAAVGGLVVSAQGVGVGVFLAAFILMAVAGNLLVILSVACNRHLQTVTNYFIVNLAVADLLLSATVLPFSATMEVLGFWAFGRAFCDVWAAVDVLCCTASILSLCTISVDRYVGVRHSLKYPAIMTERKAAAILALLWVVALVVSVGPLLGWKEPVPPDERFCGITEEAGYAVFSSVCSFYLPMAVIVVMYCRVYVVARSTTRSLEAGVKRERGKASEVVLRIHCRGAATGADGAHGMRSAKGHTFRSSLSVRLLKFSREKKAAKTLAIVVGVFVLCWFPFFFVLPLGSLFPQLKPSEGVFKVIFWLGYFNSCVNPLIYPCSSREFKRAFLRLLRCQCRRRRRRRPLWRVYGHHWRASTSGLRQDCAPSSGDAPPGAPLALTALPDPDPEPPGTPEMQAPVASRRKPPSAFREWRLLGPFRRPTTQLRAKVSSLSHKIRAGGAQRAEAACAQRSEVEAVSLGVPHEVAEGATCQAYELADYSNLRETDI
Description: PDSP Primary Binding target: ADRA1D - Compounds are tested at 10 uM concentration, plate are incubated at room temperature in the dark for 90 minutes. Reaction are stopped by vacuum filtration onto 0.3% polyethyleneimine soaked filter mats using Filtermate harvester. Scintilation cocktail is then melted onto microwave-dried filters on a hot plate and the radio activity is counted in Microbia counter.

[8] = target: T3, 5-hydroxytryptamine receptor 3A (Homo sapiens) (UniProt P46098)
T3 sequence (whole entry): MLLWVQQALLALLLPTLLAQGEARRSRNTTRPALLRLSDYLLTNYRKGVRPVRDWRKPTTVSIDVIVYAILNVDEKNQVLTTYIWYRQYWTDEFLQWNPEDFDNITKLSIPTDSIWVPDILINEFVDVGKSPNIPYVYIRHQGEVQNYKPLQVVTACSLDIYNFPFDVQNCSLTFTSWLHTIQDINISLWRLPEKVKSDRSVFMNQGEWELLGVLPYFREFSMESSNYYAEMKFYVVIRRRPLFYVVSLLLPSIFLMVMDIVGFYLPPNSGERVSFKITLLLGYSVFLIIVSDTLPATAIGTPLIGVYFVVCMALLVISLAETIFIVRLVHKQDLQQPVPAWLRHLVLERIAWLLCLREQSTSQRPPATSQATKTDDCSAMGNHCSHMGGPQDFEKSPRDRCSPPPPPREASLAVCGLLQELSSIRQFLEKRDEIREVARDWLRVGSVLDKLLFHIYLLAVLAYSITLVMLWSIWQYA
Description: PDSP Primary Binding target: HTR3A - Compounds are tested at 10 uM concentration, plate are incubated at room temperature in the dark for 90 minutes. Reaction are stopped by vacuum filtration onto 0.3% polyethyleneimine soaked filter mats using Filtermate harvester. Scintilation cocktail is then melted onto microwave-dried filters on a hot plate and the radio activity is counted in Microbia counter.

[9] = target: Beta-1 adrenergic receptor (Homo sapiens) (UniProt P08588)
Beta-1 adrenergic receptor (Homo sapiens), sequence (P08588 whole entry, looked up): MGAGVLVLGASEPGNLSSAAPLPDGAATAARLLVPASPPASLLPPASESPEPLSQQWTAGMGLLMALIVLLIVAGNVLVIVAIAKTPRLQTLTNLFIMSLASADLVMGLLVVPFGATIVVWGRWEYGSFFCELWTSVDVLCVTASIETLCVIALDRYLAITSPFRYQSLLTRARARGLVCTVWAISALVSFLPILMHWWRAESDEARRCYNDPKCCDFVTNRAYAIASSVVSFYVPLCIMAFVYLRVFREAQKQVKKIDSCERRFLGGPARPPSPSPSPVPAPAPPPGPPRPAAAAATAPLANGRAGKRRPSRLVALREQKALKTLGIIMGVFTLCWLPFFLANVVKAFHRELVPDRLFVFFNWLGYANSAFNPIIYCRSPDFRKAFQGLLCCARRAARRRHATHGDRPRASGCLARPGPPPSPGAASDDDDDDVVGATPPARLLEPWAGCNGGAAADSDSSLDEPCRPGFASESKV
Description: PDSP Primary Binding target: ADRB1 - Compounds are tested at 10 uM concentration, plate are incubated at room temperature in the dark for 90 minutes. Reaction are stopped by vacuum filtration onto 0.3% polyethyleneimine soaked filter mats using Filtermate harvester. Scintilation cocktail is then melted onto microwave-dried filters on a hot plate and the radio activity is counted in Microbia counter.

[10] = target: 5-hydroxytryptamine receptor 5A (Homo sapiens) (UniProt P47898)
5-hydroxytryptamine receptor 5A (Homo sapiens), sequence (P47898 whole entry): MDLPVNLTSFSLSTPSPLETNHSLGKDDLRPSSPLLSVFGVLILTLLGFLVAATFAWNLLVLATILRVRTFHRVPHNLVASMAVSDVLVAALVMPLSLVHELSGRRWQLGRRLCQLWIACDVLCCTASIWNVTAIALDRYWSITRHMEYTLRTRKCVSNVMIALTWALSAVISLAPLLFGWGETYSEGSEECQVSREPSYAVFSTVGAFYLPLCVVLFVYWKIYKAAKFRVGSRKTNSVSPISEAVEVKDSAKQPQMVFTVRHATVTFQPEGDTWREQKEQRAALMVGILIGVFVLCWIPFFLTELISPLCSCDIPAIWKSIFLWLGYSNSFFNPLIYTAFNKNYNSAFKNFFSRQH
Description: PDSP Primary Binding target: HTR5A - Compounds are tested at 10 uM concentration, plate are incubated at room temperature in the dark for 90 minutes. Reaction are stopped by vacuum filtration onto 0.3% polyethyleneimine soaked filter mats using Filtermate harvester. Scintilation cocktail is then melted onto microwave-dried filters on a hot plate and the radio activity is counted in Microbia counter.

[11] = target: Sigma non-opioid intracellular receptor 1 (Homo sapiens) (UniProt Q99720)
Sigma non-opioid intracellular receptor 1 (Homo sapiens), sequence (Q99720 whole entry): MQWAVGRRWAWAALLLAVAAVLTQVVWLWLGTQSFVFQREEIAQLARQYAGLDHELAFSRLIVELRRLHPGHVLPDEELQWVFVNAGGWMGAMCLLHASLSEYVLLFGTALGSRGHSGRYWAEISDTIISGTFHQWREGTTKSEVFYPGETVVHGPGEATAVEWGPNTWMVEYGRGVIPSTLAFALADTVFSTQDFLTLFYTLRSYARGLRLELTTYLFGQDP
Description: PDSP Primary Binding target: SIGMAR1 - Compounds are tested at 10 uM concentration, plate are incubated at room temperature in the dark for 90 minutes. Reaction are stopped by vacuum filtration onto 0.3% polyethyleneimine soaked filter mats using Filtermate harvester. Scintilation cocktail is then melted onto microwave-dried filters on a hot plate and the radio activity is counted in Microbia counter.

[12] = target: Histamine H3 receptor (Homo sapiens) (UniProt Q9Y5N1)
Histamine H3 receptor (Homo sapiens), sequence (Q9Y5N1 whole entry): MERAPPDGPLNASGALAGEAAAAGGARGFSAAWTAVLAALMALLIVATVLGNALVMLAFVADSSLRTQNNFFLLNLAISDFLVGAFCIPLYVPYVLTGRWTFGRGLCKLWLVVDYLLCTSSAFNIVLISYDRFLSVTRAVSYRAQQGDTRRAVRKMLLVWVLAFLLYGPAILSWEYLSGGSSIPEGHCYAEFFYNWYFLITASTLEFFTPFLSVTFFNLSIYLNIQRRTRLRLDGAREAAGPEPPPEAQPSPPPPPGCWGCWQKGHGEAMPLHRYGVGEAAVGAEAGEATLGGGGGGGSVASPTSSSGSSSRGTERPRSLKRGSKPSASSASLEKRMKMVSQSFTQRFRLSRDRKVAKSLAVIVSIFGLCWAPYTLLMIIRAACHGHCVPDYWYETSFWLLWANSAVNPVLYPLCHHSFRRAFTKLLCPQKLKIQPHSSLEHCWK
Description: PDSP Primary Binding target: HRH3 - Compounds are tested at 10 uM concentration, plate are incubated at room temperature in the dark for 90 minutes. Reaction are stopped by vacuum filtration onto 0.3% polyethyleneimine soaked filter mats using Filtermate harvester. Scintilation cocktail is then melted onto microwave-dried filters on a hot plate and the radio activity is counted in Microbia counter.

[13] = target: T4, Alpha-1B adrenergic receptor (Homo sapiens) (UniProt P35368)
T4 sequence (whole entry): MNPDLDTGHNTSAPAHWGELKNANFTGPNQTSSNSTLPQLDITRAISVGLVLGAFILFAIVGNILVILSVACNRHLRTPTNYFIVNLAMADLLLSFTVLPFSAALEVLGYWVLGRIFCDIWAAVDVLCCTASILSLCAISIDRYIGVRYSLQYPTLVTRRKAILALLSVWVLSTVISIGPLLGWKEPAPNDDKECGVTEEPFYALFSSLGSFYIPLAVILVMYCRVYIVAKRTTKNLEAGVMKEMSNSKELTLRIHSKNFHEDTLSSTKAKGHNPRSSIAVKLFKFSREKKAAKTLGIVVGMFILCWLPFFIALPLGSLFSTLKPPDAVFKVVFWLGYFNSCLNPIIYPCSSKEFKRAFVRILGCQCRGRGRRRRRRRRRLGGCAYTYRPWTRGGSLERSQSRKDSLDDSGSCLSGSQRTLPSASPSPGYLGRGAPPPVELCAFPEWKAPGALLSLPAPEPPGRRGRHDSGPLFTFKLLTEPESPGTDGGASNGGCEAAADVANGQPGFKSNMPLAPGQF
Description: PDSP Primary Binding target: ADRA1B - Compounds are tested at 10 uM concentration, plate are incubated at room temperature in the dark for 90 minutes. Reaction are stopped by vacuum filtration onto 0.3% polyethyleneimine soaked filter mats using Filtermate harvester. Scintilation cocktail is then melted onto microwave-dried filters on a hot plate and the radio activity is counted in Microbia counter.

Compound	inhibition [1] [%]	inhibition [2] [%]	inhibition [3] [%]	inhibition [4] [%]	inhibition [5] [%]	inhibition [6] [%]	inhibition [7] [%]	inhibition [8] [%]	inhibition [9] [%]	inhibition [10] [%]	inhibition [11] [%]	inhibition [12] [%]	inhibition [13] [%]
FC(F)(F)c1cccc(-c2noc(-c3cc(-c4ccccc4)c(C(F)(F)F)s3)n2)c1	-7.48	10.1	-5.11	23.6	16.3	17.8	1.55	0.39	-3.82	18.8	-0.34		
O=C(O)C1CN(Cc2ccc(-c3nc4cc(Cc5ccccc5F)ccc4s3)c(F)c2)C1	-8.59	-9.46	-1.67	-2.08	1.06	30.2		-3.55	22.9	7.19	5.12	1.61	
O=C(O)C1CN(Cc2ccc(OCc3ccc(Cl)c(Cl)c3)cc2)C1	-5.07	10.2	-5.25	-2.67	29.6	31.9	-5.42	-8.5	-7.03	23.4	76.9	-4.42	
Cc1nc(C#Cc2ccnc(Cl)c2)c(C)n1-c1ccc(OC(F)(F)F)cc1	-0.78	19.6	-6.52	63	10.4	8	20.7	-5.17	29.4	30	56.3	0.66	
N[C@H](C(=O)O)c1ccc(C(=O)O)c(C(=O)O)c1	45		4.31	18.2	-1.13	44	10.3	1.09	-5.64	-7.78	6.26	11.6	-0.2
Cc1c(P(=S)(c2ccccc2)c2ccccc2)n2ccccc2[n+]1C/C=C/c1ccccc1	57.4	8.18	71	68.2	76.4	83.2	8.81	20.9	36.1	42.1	67.2	15	39.9
c1cc(CN2CCCNCCNCCCNCC2)ccc1CN1CCCNCCNCCCNCC1	67.7		-4.94	34.5	0.23	53.6	-0.54	21.9	34.9		15.3	80.5	42.2
